Measurements taken from US12325692B2, “Uses of doxadiazines compounds” (HORITZONTS TECNOLOGICS HUNGARY KORLÁTOLT FELELOSSÉGU …, priority 2019, dated 2025).

Key:
tyrosinase = biological target: T1, tyrosinase (Mus musculus, UniProt P11344); assay: Tyrosinase activity assay in B16-F10 melanoma cells; type: cell-based; conditions: 72 h treatment, read-out: inhibition of melanin synthesis (tyrosinase activity assay) IC50
T1 construct: To measure the tyrosinase activity of the cells, the B16-F10 cells treated for 3 days; endogenous in cells; host or cells: B16-F10 melanoma cells
T1 sequence (P11344 19-533): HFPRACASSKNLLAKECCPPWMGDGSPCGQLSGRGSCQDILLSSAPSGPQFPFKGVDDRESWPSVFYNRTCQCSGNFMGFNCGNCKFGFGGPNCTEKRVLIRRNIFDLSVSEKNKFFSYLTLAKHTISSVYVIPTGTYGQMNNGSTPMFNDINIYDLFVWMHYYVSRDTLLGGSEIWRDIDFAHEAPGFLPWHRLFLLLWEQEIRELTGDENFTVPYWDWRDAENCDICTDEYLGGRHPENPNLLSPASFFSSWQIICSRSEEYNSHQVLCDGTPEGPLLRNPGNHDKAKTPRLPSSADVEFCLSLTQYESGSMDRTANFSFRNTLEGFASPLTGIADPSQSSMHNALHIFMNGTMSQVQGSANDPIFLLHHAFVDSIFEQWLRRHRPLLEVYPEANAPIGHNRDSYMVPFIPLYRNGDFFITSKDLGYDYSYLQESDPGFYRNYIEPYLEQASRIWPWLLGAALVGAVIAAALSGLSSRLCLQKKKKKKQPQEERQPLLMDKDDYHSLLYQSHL
Procedure: FIG. 8. Effect of DOXA-1 and DOXA-2 on tyrosinase activity in B16-F10 melanoma cells. Tyrosinase activity assessment was performed as described in Methods. Briefly, cells were treated with the doses indicated of test substances or Kojic Acid as a positive control for 72 h. To determine the tyrosinase activity cells were lysed and the protein extracts were incubated with L-DOPA (a precursor of melanin) at 37° C. during 2 h and the activity was measured at 485 nm. Results are represented as percentage relative to untreated cells (control).
Tyrosinase activity assay. To measure the tyrosinase activity of the cells, the B16-F10 cells treated for 3 days with several doses of the compound is lysed by incubation at 4° C. for 30 min in lysis buffer (20 mM sodium phosphate, pH 6.8, 1% Triton X-100, 1 mM PMSF, 1 mM EDTA) containing protease inhibitors cocktail. The lysates are centrifuged at 15,000× g for 10 min to obtain the supernatant as the source of tyrosinase. The reaction mixture contained 20 mM phosphate buffer, pH 6.8, 1.25 mM L-DOPA (Sigma-Aldrich). After incubation at 37° C. for 2 h, dopachrome formation is monitored by measuring absorbance at a wavelength of 475 nm in a microplatereader (TECAN). Kojic acid 2 mM is used as a positive control.

TNF-α [1] = assay: TNF-α activity assay (ELISA) in THP-1 cells; type: cell-based; conditions: THP-1 cell; read-out: inhibition of TNF-α production IC50
Procedure: (§1) FIG. 4. Inhibition of TNF-α production in THP-1 and NIH/3T3 cells.
(§2) TNF-α activity assays. The protein expression levels of TNF-α were measured by using an enzyme-linked immunosorbent assay (ELISA) kit according to the manufacturer's instructions (Diaclone). Absorbance was read at 450 nm on a spectrophotometric ELISA plate reader (Anthos 2020, Version 2.0.5, Biochrom Ltd., UK). The percentage of TNF-α inhibition was calculated from the ratio between the observed TNF-α amount secreted by treated cells (nM) and the baseline secretion of TNF-α (nM). Dexamethasone (Sigma-Aldrich; 50-02-2), was used as positive control (0.01 μM). Results were normalized to the solvent control DMSO (0.1%).

THP-1 cells [2] = assay: Cellular antioxidant activity assay (TBHP-induced ROS, DCFH-DA) in THP-1 cells; type: cell-based; conditions: Homo sapiens, THP-1 cell, 0.4 mM TBHP, read-out: antioxidant activity IC50 (TBHP-induced intracellular ROS)
Procedure: (§3) FIG. 3. Inhibition of TBHP-induced ROS production in THP-1 and NIH-3T3 cells. ROS production was evaluated by fluorescent probe DCFH-DA assay.
(§4) Cellular antioxidant activity assays. The intracellular accumulation of ROS is detected by fluorimetry using […] (DCFH-DA). The THP-1 cell (1×10^5 cells/well) are cultured in a 96-well black plate in DMEM supplemented with 10% FBS; culture medium is renewed when the cells reached 80% confluence. For inhibition, the cells are pre-incubated with the test substances for 30 min and treated with 0.4 mM Terc-butyl-hydroperoxide (TBHP). After 3 h the cells are incubated with 10 μM DCFH-DA in the culture medium at 37° C. for 30 min.
(§5) The acetate groups on DCFH-DA are removed by an intracellular esterase, trapping the probe inside the THP-1 cell. Then, the cells are washed with PBS at 37° C. and the production of ROS measured by changes in fluorescence due to the intracellular accumulation of DCF caused by the oxidation of DCFH. Intracellular ROS, as indicated by DCF fluorescence is detected using the Incucyte FLR software; the data are analyzed by the total green object integrated intensity (GCU×μm^2×well) of the imaging system IncuCyte HD (Essen BioScience).
(§6) In both cases the intracellular levels of ROS induced by TBHP are reduced (FIG. 3).

THP-1 cells [3] = assay: Cytotoxic activity assay in THP-1 cells; type: cell-based; conditions: 48 h, at the tested concentrations
Procedure: FIG. 1. Cytotoxic activities of the compound in THP-1 cells. The cells were treated with the test substance at the indicated concentrations for 48 h.
Cytotoxic activity assays. THP-1 cell was seeded in 96-well plates at a density of 5×10^4 cells/well and NIH/3T3 cells were seeded in 96-well plates at a density of 5×10^3 cells/well both incubated overnight at 37° C. in a humidified atmosphere of 5% CO2. Subsequently, cells were treated with test compounds at the indicated concentrations and DMSO as control for […]. The test compounds were dissolved in DMSO (stock solution) and diluted with medium to a final DMSO concentration of 0.2%. MTT solution (50 μL, 7 mg/mL in PBS) was added to each well and plates were incubated for an additional 2 h. Next, the medium was removed and 100 μL of DMSO was added to each well to dissolve the formazan crystals that formed. The absorbance was measured at 590 nm using a spectrophotometric ELISA plate reader (SpectraMax® i3, Molecular Devices, CA, USA). Samples were considered nontoxic for the THP-1 and NIH/3T3 cell line when cell viability was ≥90%.
To analyse the cytotoxic activities of the test compound, THP-1 cells were incubated with DOXA-1 and DOXA-2 for 48 h and cytotoxicity was measured by fluorescence microscopy using an Incuyte microscope.

HIF-1α = HIF-1α activity assay (NIH/3T3-EPO-Luc luciferase reporter, DFX-induced); type: cell-based; conditions: 6 h, read-out: inhibition of DFX-induced activation of EPO-Luc (HIF-1α stabilization) IC50
Procedure: FIG. 7. Inhibitions the HIF-1α pathway. NIH/3T3-EPO-Luc cells (10×10^4 cells/mL) were preincubated with increasing concentrations of the compound or the hypoximimetic (Desferrioxamine) DFX for 6 h. Luciferase activity was measured in the cell lysates and results are represented as the percentage of inhibition considering 100% the value of DFX-induced HIF-1α pathway activation.
HIF-1α activity assay. The NIH/3T3-EPO-luc cells have been stably transfected with the plasmid Epo-Luc plasmid. The EPO-Hypoxia Response Element (HRE)-luciferase reporter plasmid contains three copies of the HRE consensus sequence from the promoter of the erythropoietin gene in the pGL3 vector. Cells (1×10^4 for NIH/3T3-EPO-luc) are seeded the day before the assay. The next day, the cells are stimulated either with the compound or Desferrioxamine (DFX) 150 μM as a positive control. After 6 hours of stimulation the cells are lysed in 25 mM Tris-phosphate pH 7.8, 8 mM MgCl2, 1 mM DTT, 1% Triton X-100, and 7% glycerol during 15 min at RT in a horizontal shaker. Luciferase activity is measured using a GloMax 96 microplate luminometer (Promega) following the instructions of the luciferase assay kit (Promega, Madison, WI, USA). The RLU is calculated and the results are expressed as percentage of inhibition induction/inhibition of EPO-luc activity. […]

STAT3 = STAT3 activity assay (HeLa-STAT3-Luc luciferase reporter, IFNγ-induced); type: cell-based; conditions: HeLa-STAT3-Luc cells, IFNγ 25 U/mL, 6 h; read-out: inhibition of IFNγ-induced STAT3 activation IC50
Procedure: FIG. 6. DOXA-1 and DOXA-2 inhibits IFNγ-induced STAT3 activation. HeLa-STAT3-Luc cells (15×10^3 cells/mL) were preincubated with increasing concentrations of the compound and treated with IFNγ (25 U/mL) for 6 h. Luciferase activity was measured in the cell lysates with the luciferase assay kit (Promega, USA) and using a GloMax 96 microplate luminometer
STAT3 activity assay. The HeLa-STAT3-luc cells have been stably transfected with the plasmid 4×M67 pTATA TK-Luc. Cells (15×10^3 cells/mL) are seeded 96-well plate the day before the assay. Then the cells are treated with the compound for 15 min and then stimulated with IFN-γ 25 IU/mL. After 6 h, the cells are washed twice with PBS and lysed in 50 μL lysis buffer containing 25 mM Tris-phosphate (pH 7.8), 8 mM MgCl2, 1 mM DTT, 1% Triton X-100, and 7% glycerol during 15 min at RT in a horizontal shaker. Luciferase activity was measured using GloMax 96 microplate luminometer (Promega) following the instructions of the luciferase assay kit (Promega, Madison, WI, USA). The RLU is calculated and the results are expressed as percentage of inhibition of STAT3 activity induced by IFN-γ (100% activation). The experiments for each concentration of the test items will be done in triplicate wells.

NF-ηB [4] = assay: NF-ηB activity assay in THP-1 cells; type: cell-based; conditions: Homo sapiens; THP-1 cell; read-out: inhibition of NF-ηB production IC50
Procedure: (§7) FIG. 5. Inhibition of NF-ηB production in THP-1 and NIH/3T3 cells.
(§8) NF-ηB activity assays. The NIH/3T3-KBF-Luc cells has been stably transfected with the plasmid KBF-Luc plasmid, which contains three copies of NF-ηB binding site (from major histocompatibility complex promoter), fused to a minimal simian virus 40 promoter driving the luciferase gene. Cells (1×10^4 for NIH/3T3-KBF-Luc) are seeded the day before the assay on 96-well plate. Then the cells are treated with the test substances for 15 min and then stimulated with 30 ng/mL TNF-α. After 6 h, the cells are washed twice with PBS and lysed in 50 μL lysis buffer containing 25 mM Tris-phosphate (pH 7.8), 8 mM MgCl2, 1 mM DTT, 1% Triton X-100, and 7% glycerol during 15 min at RT in a horizontal shaker. Luciferase activity is measured using a GloMax 96 microplate luminometer (Promega) following the instructions of the luciferase assay kit (Promega, Madison, WI, USA). The RLU is calculated and the results are expressed as percentage of inhibition of NF-ηB activity induced by TNF-α (100% activation). The experiments for each concentration of the test items will be done in triplicate wells.

NIH/3T3 cells = assay: Cellular antioxidant activity assay (TBHP-induced ROS, DCFH-DA) in NIH/3T3 cells; type: cell-based; conditions: Mus musculus, NIH3T3, NIH/3T3 cell, read-out: antioxidant activity IC50 (TBHP-induced intracellular ROS)
Procedure: as §3, §4, §5, §6

NF-ηB [5] = assay: NF-ηB activity assay (KBF-Luc luciferase reporter) in NIH/3T3 cells; type: cell-based; conditions: Mus musculus, NIH3T3; NIH/3T3 cell; read-out: inhibition of NF-ηB production IC50
Procedure: as §7, §8

TNF-α [6] = assay: TNF-α activity assay (ELISA) in NIH/3T3 cells; type: cell-based; conditions: NIH/3T3 cell; read-out: inhibition of TNF-α production IC50
Procedure: as §1, §2

[7] = Total antioxidant activity assay (DPPH free radical, cell-free); type: biochemical; conditions: Trolox 200 μM as positive control
Procedure: FIG. 2. Antioxidant activity of compound. The percentage of antioxidant activity of each extract was assessed by DPPH free radical assay and compared to the standard Trolox (92.08% of antioxidant activity).
Total antioxidant activity assay. […] DPPH (1,1-Diphenyl-2-picrylhydrazine) is a purple coloured stable free radical that is reduced to the yellow-coloured diphenylpicrylhydrazine. In a volume of 1 mL of methanol the test samples are mixed with DPPH 0.125 mM. Trolox (200 μM) is included as a positive control. After 30 min of incubation at room temperature in the dark the absorbance measurements are read at 517 nm using Thermo Scientific Genesys 10 uv scanning spectrophotometer. Lower absorbance of the reaction mixtures indicated higher free radical-scavenging activity. DPPH radical-scavenging activity is calculated according to the following formula: % Antioxidant activity=[(AC−AS)/AC]×100
Where Ac (control) is the absorbance of the control reaction (DPPH) and As (sample) is the absorbance of DPPH and sample.

CCCCCC1=NN(C(=O)CCOC(=O)CCC(=O)O)OC(CCCCC)C1 (stereo not drawn) [DOXA-1, Doxadiazine-1]
IC50 (tyrosinase): 18 nM | IC50 (TNF-α [1]): 32.5 nM | IC50 (THP-1 cells [2]): 8.15 nM | cytotoxicity against THP-1 cell (THP-1 cells [3]): no cytotoxicity | IC50 (HIF-1α): 12.4 nM | IC50 (STAT3): 3.09 nM | IC50 (NF-ηB [4]): 63.6 nM | IC50 (NIH/3T3 cells): 3330 nM | IC50 (NF-ηB [5]): 67.7 nM | IC50 (TNF-α [6]): 17.4 nM

CCCCCC1=NN(C(=O)CCOC(C)=O)OC(CCCCC)C1 (stereo not drawn) [DOXA-2, Doxadiazine-2]
IC50 (tyrosinase): 8.64 nM | IC50 (TNF-α [1]): 3.47 nM | IC50 (THP-1 cells [2]): 3.44 nM | cytotoxicity against THP-1 cell (THP-1 cells [3]): no cytotoxicity | IC50 (HIF-1α): 5.07 nM | IC50 (STAT3): 0.14 nM | IC50 (NF-ηB [4]): 5.18 nM | IC50 (NIH/3T3 cells): 2.23 nM | IC50 (NF-ηB [5]): 2.41 nM | IC50 (TNF-α [6]): 1.58 nM

Cc1c(C)c2c(c(C)c1O)CCC(C)(C(=O)O)O2 (stereo not drawn) [Trolox, reference compound]
percentage of antioxidant activity (DPPH), standard [7]: 92.08%
